{"source": "paper PMC10291549", "about": "“Reaction Behavior of [1,3-Diethyl-4,5-diphenyl-1H-imidazol-2-ylidene] Containing Gold(I/III) Complexes against Ingredients of the Cell Culture Medium and the Meaning on the Potential Use for Cancer Eradication Therapy” (Journal of Medicinal Chemistry, 2023)", "key": {"A549 cells": {"tested_on": "A549 cells", "type": "cell-based", "settings": "72 h incubation; mean ± SD of two or three independent experiments; read-out: metabolic activity IC50, A549"}, "[1]": {"tested_on": "A549-R cells (Taxol/Paclitaxel-resistant subclone)", "type": "cell-based", "settings": "72 h incubation; mean ± SD of two or three independent experiments; read-out: metabolic activity IC50, A549-R"}, "K562 cells": {"tested_on": "K562 cells", "type": "cell-based", "settings": "72 h incubation; mean ± SD of two or three independent experiments; read-out: metabolic activity IC50, K562"}, "[2]": {"tested_on": "K562-R cells (Doxorubicin-resistant subclone)", "type": "cell-based", "settings": "72 h incubation; mean ± SD of two or three independent experiments; read-out: metabolic activity IC50, K562-R"}, "MCF-7 cells": {"tested_on": "MCF-7 cells", "type": "cell-based, human", "settings": "72 h incubation; mean ± SD of two or three independent experiments; read-out: metabolic activity IC50, MCF-7"}, "[3]": {"tested_on": "MCF-7TamR cells (Tamoxifen-resistant subline)", "type": "cell-based, human", "settings": "72 h incubation; mean ± SD of two or three independent experiments; read-out: metabolic activity IC50, MCF-7TamR"}, "A2780 cells": {"tested_on": "A2780 cells", "type": "cell-based, human", "settings": "72 h incubation; mean ± SD of two or three independent experiments; read-out: metabolic activity IC50, A2780"}, "[4]": {"tested_on": "A2780cis cells (Cisplatin-resistant)", "type": "cell-based, human", "settings": "72 h incubation; mean ± SD of two or three independent experiments; read-out: metabolic activity IC50, A2780cis"}, "IGROV1 cells": {"tested_on": "IGROV1 cells", "type": "cell-based", "settings": "72 h incubation; mean ± SD of two or three independent experiments; read-out: metabolic activity IC50, IGROV1"}, "IGROV1-CSC cells": {"tested_on": "IGROV1-CSC cells", "type": "cell-based", "settings": "72 h incubation; mean ± SD of two or three independent experiments; read-out: metabolic activity IC50, IGROV1-CSC"}, "[5]": {"assay": "HPLC reactivity study in chloride containing ACN/water", "type": "physicochemical", "settings": "chloride containing ACN/water 50/50, 0.5 mM"}, "[6]": {"assay": "HPLC degradation study in ACN/RPMI 1640 cell culture medium", "settings": "ACN/RPMI 1640 50/50, 0.5 mM"}}, "data": [{"smiles": "CCn1c(-c2ccccc2)c(-c2ccccc2)n(CC)[c]1=[Au+]([Br])([Br])=[c]1n(CC)c(-c2ccccc2)c(-c2ccccc2)n1CC.F[P-](F)(F)(F)(F)F", "note": "[Complex 10, Bis[1,3-diethyl-4,5-diphenyl-1H-imidazol-2-ylidene]dibromidogold(III) Hexafluorophosphate]", "values": [{"measurement": "IC50", "setting": "A549 cells", "result": "200 ± 20", "unit": "nM"}, {"measurement": "IC50", "setting": "[1]", "result": "250 ± 40", "unit": "nM"}, {"measurement": "IC50", "setting": "K562 cells", "result": "490 ± 120", "unit": "nM"}, {"measurement": "IC50", "setting": "[2]", "result": "1590 ± 300", "unit": "nM"}, {"measurement": "IC50", "setting": "MCF-7 cells", "result": "220 ± 70", "unit": "nM"}, {"measurement": "IC50", "setting": "[3]", "result": "290 ± 180", "unit": "nM"}, {"measurement": "IC50", "setting": "A2780 cells", "result": "290 ± 50", "unit": "nM"}, {"measurement": "IC50", "setting": "[4]", "result": "100 ± 40", "unit": "nM"}, {"measurement": "IC50", "setting": "IGROV1 cells", "result": "440 ± 190", "unit": "nM"}, {"measurement": "IC50", "setting": "IGROV1-CSC cells", "result": "1290 ± 230", "unit": "nM"}, {"measurement": "formation of 8", "setting": "[5]; t0h (1.5 min)", "result": 2.2, "unit": "%"}, {"measurement": "substitution to 9", "setting": "[5]; t0h", "result": 24.0, "unit": "%"}, {"measurement": "formation of 8 (ligand scrambling / reduction)", "setting": "[5]; t24h", "result": 5.1, "unit": "%"}, {"measurement": "substitution to 9", "setting": "[5]; t24h", "result": 54.4, "unit": "%"}, {"measurement": "formation of 8", "setting": "[6]; t0h", "result": 9.3, "unit": "%"}, {"measurement": "formation of 9 (Br/Cl exchange)", "setting": "[6]; t0h", "result": 42.3, "unit": "%"}, {"measurement": "amount of 9", "setting": "[6]; t24h", "result": 18.2, "unit": "%"}, {"measurement": "formation of 8", "setting": "[6]; t24h", "result": 71.1, "unit": "%"}, {"measurement": "remaining amount of the complex itself", "setting": "[6]; t24h", "result": 10.7, "unit": "%"}]}, {"smiles": "CCn1c(-c2ccccc2)c(-c2ccccc2)n(CC)[c]1=[Au+]([Cl])([Cl])=[c]1n(CC)c(-c2ccccc2)c(-c2ccccc2)n1CC.F[P-](F)(F)(F)(F)F", "note": "[Complex 9, Bis[1,3-diethyl-4,5-diphenyl-1H-imidazol-2-yliden]dichloridogold(III) Hexafluorophosphate]", "values": [{"measurement": "IC50", "setting": "A549 cells", "result": "180 ± 10", "unit": "nM"}, {"measurement": "IC50", "setting": "[1]", "result": "210 ± 20", "unit": "nM"}, {"measurement": "IC50", "setting": "K562 cells", "result": "550 ± 160", "unit": "nM"}, {"measurement": "IC50", "setting": "[2]", "result": "1430 ± 290", "unit": "nM"}, {"measurement": "IC50", "setting": "MCF-7 cells", "result": "240 ± 50", "unit": "nM"}, {"measurement": "IC50", "setting": "[3]", "result": "260 ± 50", "unit": "nM"}, {"measurement": "IC50", "setting": "A2780 cells", "result": "250 ± 40", "unit": "nM"}, {"measurement": "IC50", "setting": "[4]", "result": "50 ± 20", "unit": "nM"}, {"measurement": "IC50", "setting": "IGROV1 cells", "result": "700 ± 380", "unit": "nM"}, {"measurement": "IC50", "setting": "IGROV1-CSC cells", "result": "1740 ± 190", "unit": "nM"}, {"measurement": "formation of 8 (ligand scrambling / reduction)", "setting": "[5]; t24h", "result": 12.5, "unit": "%"}, {"measurement": "formation of 8", "setting": "[6]; t0h", "result": 5.0, "unit": "%"}, {"measurement": "formation of 8", "setting": "[6]; t24h", "result": 36.3, "unit": "%"}]}, {"smiles": "CC(=O)OC[C@H]1O[C@@H]([S-])[C@H](OC(C)=O)[C@@H](OC(C)=O)[C@@H]1OC(C)=O.CCP(CC)CC.[Au+]", "note": "[Auranofin, reference compound]", "values": [{"measurement": "IC50", "setting": "A549 cells", "result": "4260 ± 450", "unit": "nM"}, {"measurement": "IC50", "setting": "[1]", "result": "4420 ± 440", "unit": "nM"}, {"measurement": "IC50", "setting": "K562 cells", "result": "3660 ± 270", "unit": "nM"}, {"measurement": "IC50", "setting": "[2]", "result": "3750 ± 380", "unit": "nM"}, {"measurement": "IC50", "setting": "MCF-7 cells", "result": "3150 ± 360", "unit": "nM"}, {"measurement": "IC50", "setting": "[3]", "result": "1140 ± 460", "unit": "nM"}]}, {"smiles": "N.N.[Cl][Pt][Cl]", "note": "[Cisplatin, reference compound]", "values": [{"measurement": "IC50", "setting": "A549 cells", "result": "6670 ± 630", "unit": "nM"}, {"measurement": "IC50", "setting": "[1]", "result": "6990 ± 570", "unit": "nM"}, {"measurement": "IC50", "setting": "K562 cells", "result": "7910 ± 780", "unit": "nM"}, {"measurement": "IC50", "setting": "[2]", "result": "9930 ± 770", "unit": "nM"}, {"measurement": "IC50", "setting": "MCF-7 cells", "result": "7180 ± 1280", "unit": "nM"}, {"measurement": "IC50", "setting": "[3]", "result": "4130 ± 590", "unit": "nM"}, {"measurement": "IC50", "setting": "A2780 cells", "result": "6650 ± 1420", "unit": "nM"}, {"measurement": "IC50", "setting": "[4]", "result": "9800 ± 640", "unit": "nM"}, {"measurement": "IC50", "setting": "IGROV1 cells", "result": "2840 ± 760", "unit": "nM"}, {"measurement": "IC50", "setting": "IGROV1-CSC cells", "result": "3760 ± 400", "unit": "nM"}]}]}
